A short description of series [1]: Effect on hydrocortisone induced chick embryo cataract. The conditions noted are these: HC 0.12 mg/egg. The format is in vivo, White leghorn chick embryos. The method, then: White leghorn chick embryos were incubated in an incubator at a temperature of 37° C. and a humidity of approximately 70%. Then a solution of 0.12 mg of hydrocortisone succinate (HC) in 0.2 ml of purified water was administered through the air chambers of the eggs of the control group and the test group on the 15th day of incubation. Thiotaurine was then given to the test group 2 hours, or 2 and 5 hours, after HC administration.
The lenses were removed 8 hours after HC administration, and the presence of cataracts was judged according to the criteria listed in Table 8, using the method of Nishikuni, et. al. (Investigative Opthamology and Visual Science, 25, p. 1051, 1984).
I. Lens was clear and indistinguishable from control.
IV: Pinhole-sized clear area in an opaque nucleus.

The nature of the next series: in vivo. To be noted: rat, SD male and female rats, oral.
The nature of series [2]: Long-term administration to rats, 180 days. To be noted: 200 mg/kg every day. In kind it is in vivo. The source says:
The active ingredient compound according to the present invention, an aminothiosulfonic acid, not only functions as a light shield and as a production inhibitor or scavenger of lipid peroxides and active oxygen, but since it and its decomposition products are structurally similar to compounds which are naturally present in the body including taurine, etc. (C.R. Acad. Sci., Ser. 3, 302 (13) 503-8: Presence of Large Quantities of Thiotaurine and Hypotaurine in the Tissues of Riftia pachyptila), its toxicity is extremely low making it a safe substance.

Series [3] in a line: Influence of externally applied thiotaurine on UVB rays (erythema, SPF). In kind it is in vivo, male Hartley guinea pigs. The method, then:
Thiotaurine was added to a base cream of the composition indicated in Table 5, at concentrations of 5.0% (w/w) and 7.5% (w/w), respectively.
Experimental method: In this experiment, male Hartley guinea pigs of body weight 230-250 g were used. The back, abdomen and side hair of the guinea pigs was first roughly removed with hair clippers, after which the hair was completely removed with care using a Brown electric shaver. On the morning of the next day, the hair was again removed, the body weights measured, and the groups divided. The UVB radiation was applied in 10 stages of 0.075, 0.1, 0.15, 0.2, 0.3, 0.4, 0.5, 0.6, 0.7, and 0.8. Five minutes prior to irradiation, the base cream was applied to the control area, and the thiotaurine-containing cream preparations were applied to the test area. Then observations were made 2, 4, 6, 8, and 24 hours later to determine the presence of erythema, visually.
1; Difficult to determine presence or absence of erythema
2; Erythema clearly present but edges unclear
3; Erythema clearly present and edges clear

On the set-up of series [4]: species or system rabbits. The conditions noted are these: rabbit, in vivo. The method, then:
In addition, the result was determined to be negative in both a primary skin irritation test and an eye irritation test using rabbits.

SMILES strings stand for the structures.

For orientation: LD50 means the dose expected to kill half of the subjects tested. The low end stands for greater toxicity, the high end for lower toxicity.

For `NCCS(=O)(O)=S` [thiotaurine, Aminoethyl thiosulfonate], the “Determination: lenses of grade II (faint opaque ring)” value was 6/8 in series [1] (0.5 mg × 1 time/egg), 2/8 in series [1] (1.0 mg × 1 time/egg), 4/8 in series [1] (1.0 mg × 2 times/egg) and 4/8 in series [1] (2.0 mg × 2 times/egg). The “Determination: lenses of grade III (distinct opaque ring)” value was 2/8 in series [1] (0.5 mg × 1 time/egg) and 4/8 in series [1] (1.0 mg × 1 time/egg). In addition, the “Determination: lenses of grade I (clear)” value in series [1] (1.0 mg × 1 time/egg) is on record as 2/8; in series [1] (1.0 mg × 2 times/egg), 4/8; in series [1] (2.0 mg × 2 times/egg), 4/8. Moreover, in the series “in vivo”, the LD50 was greater than 2000 mg/kg. For the same compound, in series [2], the “change in the body weight curve” value is reported as “no change in the body weight curve”. Also, the deaths entry in series [2] is recorded as “no deaths at all”. Further, the SPF value is listed as 3.6 in series [3] (5% (w/w) cream, 2 hr post-irradiation); 3.6 in series [3] (5% (w/w) cream, 4 hr post-irradiation); 3.8 in series [3] (5% (w/w) cream, 6 hr post-irradiation); 4.1 in series [3] (5% (w/w) cream, 8 hr post-irradiation); 5.0 in series [3] (5% (w/w) cream, 24 hr post-irradiation); 4.4 in series [3] (7.5% (w/w) cream, 2 hr post-irradiation). The SPF value in series [3] (7.5% (w/w) cream, 4 hr post-irradiation) came out at 4.3; in series [3] (7.5% (w/w) cream, 6 hr post-irradiation), 4.3; in series [3] (7.5% (w/w) cream, 8 hr post-irradiation), 4.3; in series [3] (7.5% (w/w) cream, 24 hr post-irradiation) it was 5.7. Further, the eye irritation entry in series [4] is reported as “negative”.

The record behind these values is patent US5601806A, “Methods for scavenging active oxygen compounds and preventing damage from ultra violet B rays using taurine analogues” (Sogo Pharmaceutical Company Limited, priority 1991, dated 1997).
